ChEMBL document CHEMBL3112395, “Synthesis and structure-activity relationship studies of N-terminal analogues of the antimicrobial peptide tridecaptin A(1)” (J Med Chem, 2014)
Values after ≈ are worked out from the molar mass of the structure shown.

Tests used:
Assay type in all cases: functional
Enterococcus faecium = assay: Antibacterial activity against Enterococcus faecium ATCC 19434 assessed as growth inhibition by broth dilution method
Listeria monocytogenes = assay: Antibacterial activity against Listeria monocytogenes ATCC […] assessed as growth inhibition by broth dilution method
Staphylococcus aureus = assay: Antibacterial activity against Staphylococcus aureus ATCC 29213 assessed as growth inhibition by broth dilution method
Enterococcus faecalis = assay: Antibacterial activity against Enterococcus faecalis ATCC 29212 assessed as growth inhibition by broth dilution method
Acinetobacter baumannii = assay: Antibacterial activity against Acinetobacter baumannii ATCC 19606 assessed as growth inhibition by broth dilution method
Klebsiella pneumoniae = assay: Antibacterial activity against Klebsiella pneumoniae ATCC 13883 assessed as growth inhibition by broth dilution method
Campylobacter jejuni = assay: Antibacterial activity against Campylobacter jejuni NCTC 11168 assessed as growth inhibition by broth dilution method
Salmonella enterica = assay: Antibacterial activity against Salmonella enterica ATCC 13311 assessed as growth inhibition by broth dilution method
Pseudomonas aeruginosa = assay: Antibacterial activity against Pseudomonas aeruginosa ATCC 27853 assessed as growth inhibition by broth dilution method
Escherichia coli = assay: Antibacterial activity against Escherichia coli ATCC 25922 assessed as growth inhibition by broth dilution method

Compound | MIC (Enterococcus faecium) [µg/mL] | MIC (Listeria monocytogenes) [µg/mL] | MIC (Staphylococcus aureus) [µg/mL] | MIC (Enterococcus faecalis) [µg/mL] | MIC (Acinetobacter baumannii) [µg/mL] | MIC (Klebsiella pneumoniae) [µg/mL] | MIC (Campylobacter jejuni) [µg/mL] | MIC (Salmonella enterica) [µg/mL] | MIC (Pseudomonas aeruginosa) [µg/mL] | MIC (Escherichia coli) [µg/mL]
CCCCCCCCCC(=O)N[C@@H](C(=O)N[C@H](CCN)C(=O)NCC(=O)N[C@H](CO)C(=O)N[C@H](Cc1c[nH]c2ccccc12)C(=O)N[C@@H](CO)C(=O)N[C@@H](CCN)C(=O)N[C@H](CCN)C(=O)N[C@@H](Cc1ccccc1)C(=O)N[C@@H](CCC(=O)O)C(=O)N[C@H](C(=O)N[C@@H](C(=O)N[C@@H](C)C(=O)O)[C@@H](C)CC)C(C)C)C(C)C | 100 (≈ 64.6 µM) | 25 (≈ 16.1 µM) | > 100 | > 100 | 12.5 (≈ 8.07 µM) | 6.25 (≈ 4.04 µM) | 0.4 (≈ 0.258 µM) | 12.5 (≈ 8.07 µM) | > 100 | 6.25 (≈ 4.04 µM)
CCCCCCCCCCCCCC(=O)N[C@@H](C(=O)N[C@H](CCN)C(=O)NCC(=O)N[C@H](CO)C(=O)N[C@H](Cc1c[nH]c2ccccc12)C(=O)N[C@@H](CO)C(=O)N[C@@H](CCN)C(=O)N[C@H](CCN)C(=O)N[C@@H](Cc1ccccc1)C(=O)N[C@@H](CCC(=O)O)C(=O)N[C@H](C(=O)N[C@@H](C(=O)N[C@@H](C)C(=O)O)[C@@H](C)CC)C(C)C)C(C)C | > 100 | > 100 | > 100 | > 100 | > 100 | > 100 | 12.5 (≈ 7.79 µM) | > 100 | > 100 | > 100
CC[C@H](C)[C@@H](NC(=O)[C@@H](NC(=O)[C@H](CCC(=O)O)NC(=O)[C@H](Cc1ccccc1)NC(=O)[C@@H](CCN)NC(=O)[C@H](CCN)NC(=O)[C@H](CO)NC(=O)[C@@H](Cc1c[nH]c2ccccc12)NC(=O)[C@@H](CO)NC(=O)CNC(=O)[C@@H](CCN)NC(=O)[C@H](NC(=O)CCC1c2ccccc2-c2ccccc21)C(C)C)C(C)C)C(=O)N[C@@H](C)C(=O)O | > 100 | 100 (≈ 61.9 µM) | > 100 | > 100 | > 100 | 100 (≈ 61.9 µM) | 1.56 (≈ 0.966 µM) | > 100 | > 100 | 6.25 (≈ 3.87 µM)
CCCCCC(=O)N[C@@H](C(=O)N[C@H](CCN)C(=O)NCC(=O)N[C@H](CO)C(=O)N[C@H](Cc1c[nH]c2ccccc12)C(=O)N[C@@H](CO)C(=O)N[C@@H](CCN)C(=O)N[C@H](CCN)C(=O)N[C@@H](Cc1ccccc1)C(=O)N[C@@H](CCC(=O)O)C(=O)N[C@H](C(=O)N[C@@H](C(=O)N[C@@H](C)C(=O)O)[C@@H](C)CC)C(C)C)C(C)C | > 100 | 100 (≈ 67 µM) | > 100 | > 100 | 25 (≈ 16.7 µM) | 3.13 (≈ 2.1 µM) | 3.13 (≈ 2.1 µM) | 6.25 (≈ 4.19 µM) | 50 (≈ 33.5 µM) | 3.13 (≈ 2.1 µM)
CCCCCCC(=O)N[C@@H](C(=O)N[C@H](CCN)C(=O)NCC(=O)N[C@H](CO)C(=O)N[C@H](Cc1c[nH]c2ccccc12)C(=O)N[C@@H](CO)C(=O)N[C@@H](CCN)C(=O)N[C@H](CCN)C(=O)N[C@@H](Cc1ccccc1)C(=O)N[C@@H](CCC(=O)O)C(=O)N[C@H](C(=O)N[C@@H](C(=O)N[C@@H](C)C(=O)O)[C@@H](C)CC)C(C)C)C(C)C | > 100 | 50 (≈ 33.2 µM) | > 100 | > 100 | 12.5 (≈ 8.3 µM) | 6.25 (≈ 4.15 µM) | 1.56 (≈ 1.04 µM) | 12.5 (≈ 8.3 µM) | 50 (≈ 33.2 µM) | 6.25 (≈ 4.15 µM)
CC[C@H](C)[C@@H](NC(=O)[C@@H](NC(=O)[C@H](CCC(=O)O)NC(=O)[C@H](Cc1ccccc1)NC(=O)[C@@H](CCN)NC(=O)[C@H](CCN)NC(=O)[C@H](CO)NC(=O)[C@@H](Cc1c[nH]c2ccccc12)NC(=O)[C@@H](CO)NC(=O)CNC(=O)[C@@H](CCN)NC(=O)[C@H](NC(=O)COCCOCCOC)C(C)C)C(C)C)C(=O)N[C@@H](C)C(=O)O | > 100 | > 100 | > 100 | > 100 | > 100 | > 100 | > 100 | > 100 | > 100 | > 100
CCCCCCCCCCCCCCCC(=O)N[C@@H](C(=O)N[C@H](CCN)C(=O)NCC(=O)N[C@H](CO)C(=O)N[C@H](Cc1c[nH]c2ccccc12)C(=O)N[C@@H](CO)C(=O)N[C@@H](CCN)C(=O)N[C@H](CCN)C(=O)N[C@@H](Cc1ccccc1)C(=O)N[C@@H](CCC(=O)O)C(=O)N[C@H](C(=O)N[C@@H](C(=O)N[C@@H](C)C(=O)O)[C@@H](C)CC)C(C)C)C(C)C | > 100 | > 100 | > 100 | > 100 | > 100 | > 100 | 50 (≈ 30.6 µM) | > 100 | > 100 | > 100
